Source: ChEMBL document CHEMBL1133000, “Inhibition of protein kinase C(alpha) by dequalinium analogues: dependence on linker length and geometry” (J Med Chem, 2000)

Target: Protein kinase C alpha type (Homo sapiens, UniProt P17252)
Assay: Inhibition of human recombinant PKCalpha

| IC50 | SMILES |
| --- | --- |
| 137 µM | CCCC/C=C/CCCC[n+]1c(C)cc(N)c2ccccc21 |
| 12 µM | Cc1cc(N)c2ccccc2[n+]1CCCC/C=C/CCCC[n+]1c(C)cc(N)c2ccccc21 |
| 52 µM | Cc1cc(N)c2ccccc2[n+]1CCCC/C=C\CCCC[n+]1c(C)cc(N)c2ccccc21 |
